US9650395B2, “Antibacterial compounds and methods for use” (PTC Therapeutics, Inc., priority 2011, dated 2017)
Values after ≈ are worked out from the molar mass of the structure shown. Like-named read-outs stand apart in the source and are kept apart here.

Assays:
[1] = tested on: Pseudomonas aeruginosa (P. aeruginosa) 27853; assay: Antibacterial activity, MIC, P. aeruginosa 27853; type: cell-based; details: Pseudomonas aeruginosa, P. aeruginosa 27853; read-out: MIC 27853
Description: (§1) The antibacterial activity from a microbroth dilution method may be presented as the minimum inhibitory concentration (MIC in […]). The MIC value is the lowest concentration of a drug which prevents macroscopically visible bacterial growth under test conditions.
Antibacterial activity of test compounds against the Gram-negative bacterium Pseudomonas aeruginosa (P. aeruginosa) 27853 is shown in Table 5.

[2] = tested on: quinolone resistant E. coli LZ3111; assay: Antibacterial activity, MIC, quinolone resistant E. coli LZ3111; type: cell-based, Escherichia coli; details: Escherichia coli, read-out: MIC, LZ3111
Description: as §1
Mutations in these regions are known to confer a high level resistance to the quinolone class of antibiotics.

[3] = tested on: Klebsiella pneumoniae (K. pneumoniae) 35657; assay: Antibacterial activity, MIC, K. pneumoniae 35657; type: cell-based; details: Klebsiella pneumoniae
[4] = tested on: resistant K. pneumoniae MXX1232 (MDR clinical isolate); assay: Antibacterial activity, MIC, resistant K. pneumoniae MXX1232; type: cell-based, Klebsiella pneumoniae; details: Klebsiella pneumoniae, read-out: MIC MMX1232
[5] = tested on: Acinetobacter baumannii (A. baumannii) BAA747; assay: Antibacterial activity, MIC, A. baumannii BAA747; type: cell-based; details: Acinetobacter baumannii; A. baumannii BAA747; read-out: MIC BAA747
[6] = tested on: resistant A. baumannii MXX2240 (MDR clinical isolate); assay: Antibacterial activity, MIC, resistant A. baumannii MXX2240; type: cell-based, Acinetobacter baumannii; details: Acinetobacter baumannii, read-out: MIC MMX2240
[7] = tested on: super sensitive Gram-negative Escherichia coli (E. coli) BAS849; assay: Antibacterial activity, microbroth dilution MIC, E. coli BAS849; type: cell-based; details: Escherichia coli; E. coli BAS849, microbroth dilution; read-out: MIC, BAS849
[8] = tested on: control Gram-negative E. coli 25922 strain; assay: Antibacterial activity, microbroth dilution MIC, E. coli 25922; type: cell-based, Escherichia coli; details: Escherichia coli; E. coli 25922, microbroth dilution; read-out: MIC, 25922
[9] = tested on: Gram-positive Staphylococcus aureus (S. aureus) 29213; assay: Antibacterial activity, microbroth dilution MIC, S. aureus 29213; type: cell-based; details: Staphylococcus aureus; S. aureus 29213, microbroth dilution; read-out: MIC, 29213
[10] = resistant K. pneumoniae MMX1232, MDR clinical isolate
[11] = resistant A. baumannii MMX2240, MDR clinical isolate

Row | SMILES | MIC [1] [µg/mL] | MIC [2] [µg/mL] | MIC [3] [µg/mL] | MIC [4, 10] [µg/mL] | MIC [5] [µg/mL] | MIC [6, 11] [µg/mL] | MIC [7] [µg/mL] | MIC [8] [µg/mL] | MIC [9] [µg/mL] | MIC [4] [µg/mL] | MIC [6] [µg/mL]
1 | Cc1c(-c2ccc(N3CCC(N(C)C)C3)nc2)[nH]c(=O)c(C(=O)O)c1O (stereo not drawn) [Cpd 337, 6-(6-(3-(dimethylamino)pyrrolidin-1-yl)pyridin-3-yl)-4-hydroxy-5-methyl-2-oxo-1,2-dihydropyridine-3-carboxylic acid] | 12.5 to 150 (≈ 34.9 to 419 µM) | < 1 | 12.5 to 150 (≈ 34.9 to 419 µM) | 12.5 to 150 (≈ 34.9 to 419 µM) | 12.5 to 150 (≈ 34.9 to 419 µM) | 12.5 to 150 (≈ 34.9 to 419 µM) | 12.5 to 150 (≈ 34.9 to 419 µM) | 12.5 to 150 (≈ 34.9 to 419 µM) | 12.5 to 150 (≈ 34.9 to 419 µM) |  | 
2 | CCc1c(-c2ccc(C3CCN(C)CC3)cc2)[nH]c(=O)c(C(=O)O)c1O [Cpd 338, 5-ethyl-4-hydroxy-6-(4-(1-methylpiperidin-4-yl)phenyl)-2-oxo-1,2-dihydropyridine-3-carboxylic acid] | 12.5 to 150 (≈ 35.1 to 421 µM) | 12.5 to 150 (≈ 35.1 to 421 µM) | 12.5 to 150 (≈ 35.1 to 421 µM) | 12.5 to 150 (≈ 35.1 to 421 µM) | 12.5 to 150 (≈ 35.1 to 421 µM) | 12.5 to 150 (≈ 35.1 to 421 µM) | 12.5 to 150 (≈ 35.1 to 421 µM) | 12.5 to 150 (≈ 35.1 to 421 µM) | 12.5 to 150 (≈ 35.1 to 421 µM) |  | 
3 | CCc1c(-c2ccc(C3CCN(CC)CC3)cc2)[nH]c(=O)c(C(=O)O)c1O [Cpd 339, 5-ethyl-6-(4-(1-ethylpiperidin-4-yl)phenyl)-4-hydroxy-2-oxo-1,2-dihydropyridine-3-carboxylic acid] | 12.5 to 150 (≈ 33.7 to 405 µM) | 12.5 to 150 (≈ 33.7 to 405 µM) | 12.5 to 150 (≈ 33.7 to 405 µM) | 12.5 to 150 (≈ 33.7 to 405 µM) | 12.5 to 150 (≈ 33.7 to 405 µM) | 12.5 to 150 (≈ 33.7 to 405 µM) | 3.5 to 12.5 (≈ 9.45 to 33.7 µM) | 12.5 to 150 (≈ 33.7 to 405 µM) | 12.5 to 150 (≈ 33.7 to 405 µM) |  | 
4 | CCc1c(-c2ccc(C3=CCNCC3)cc2)[nH]c(=O)c(C(=O)O)c1O [Cpd 340, 5-ethyl-4-hydroxy-2-oxo-6-(4-(1,2,3,6-tetrahydropyridin-4-yl)phenyl)-1,2-dihydropyridine-3-carboxylic acid] | 12.5 to 150 (≈ 36.7 to 441 µM) | 12.5 to 150 (≈ 36.7 to 441 µM) | 3.5 to 12.5 (≈ 10.3 to 36.7 µM) |  | 12.5 to 150 (≈ 36.7 to 441 µM) |  | 3.5 to 12.5 (≈ 10.3 to 36.7 µM) | 12.5 to 150 (≈ 36.7 to 441 µM) | 12.5 to 150 (≈ 36.7 to 441 µM) | 12.5 to 150 (≈ 36.7 to 441 µM) | 12.5 to 150 (≈ 36.7 to 441 µM)
5 | CCc1c(-c2ccc(C3=CCN(CC)CC3)cc2)[nH]c(=O)c(C(=O)O)c1O [Cpd 341, 5-ethyl-6-(4-(1-ethyl-1,2,3,6-tetrahydropyridin-4-yl)phenyl)-4-hydroxy-2-oxo-1,2-dihydropyridine-3-carboxylic acid] | 12.5 to 150 (≈ 33.9 to 407 µM) | 3.5 to 12.5 (≈ 9.5 to 33.9 µM) | 3.5 to 12.5 (≈ 9.5 to 33.9 µM) |  | 12.5 to 150 (≈ 33.9 to 407 µM) |  | 1 to 3.5 (≈ 2.71 to 9.5 µM) | 12.5 to 150 (≈ 33.9 to 407 µM) | 12.5 to 150 (≈ 33.9 to 407 µM) | 12.5 to 150 (≈ 33.9 to 407 µM) | 12.5 to 150 (≈ 33.9 to 407 µM)
6 | CCc1c(-c2ccc(C3=CCN(C)CC3)cc2)[nH]c(=O)c(C(=O)O)c1O [Cpd 342, 5-ethyl-4-hydroxy-6-(4-(1-methyl-1,2,3,6-tetrahydropyridin-4-yl)phenyl)-2-oxo-1,2-dihydropyridine-3-carboxylic acid] | 12.5 to 150 (≈ 35.3 to 423 µM) | 3.5 to 12.5 (≈ 9.88 to 35.3 µM) | 3.5 to 12.5 (≈ 9.88 to 35.3 µM) |  | 12.5 to 150 (≈ 35.3 to 423 µM) |  | 1 to 3.5 (≈ 2.82 to 9.88 µM) | 3.5 to 12.5 (≈ 9.88 to 35.3 µM) | 12.5 to 150 (≈ 35.3 to 423 µM) | 12.5 to 150 (≈ 35.3 to 423 µM) | 12.5 to 150 (≈ 35.3 to 423 µM)
7 | CCc1c(-c2ccc(CCN(C)C)cc2)[nH]c(=O)c(C(=O)O)c1O [Cpd 343, 6-(4-(2-(dimethylamino)ethyl)phenyl)-5-ethyl-4-hydroxy-2-oxo-1,2-dihydropyridine-3-carboxylic acid] | 12.5 to 150 (≈ 37.8 to 454 µM) | 12.5 to 150 (≈ 37.8 to 454 µM) | 12.5 to 150 (≈ 37.8 to 454 µM) | 12.5 to 150 (≈ 37.8 to 454 µM) | 12.5 to 150 (≈ 37.8 to 454 µM) | 12.5 to 150 (≈ 37.8 to 454 µM) | 3.5 to 12.5 (≈ 10.6 to 37.8 µM) | 12.5 to 150 (≈ 37.8 to 454 µM) | 12.5 to 150 (≈ 37.8 to 454 µM) |  | 
